# Residues, ends and D or L forms follow the SMILES beside them.
row,SMILES,melting point
1,O=C(SCCC(=O)N1C(C(=O)NO)CSC1c1ccccc1O)c1ccccc1 (stereo not given),105 to 110 °C
2,COc1cn(C)c(=O)c(N)n1,166 to 167 °C
3,CN(O)C(=O)Nc1cc(Cl)cc(Cl)c1,131 to 132 °C
4,CC(O)C(Cc1cc(C(C)(C)C)c(O)c(C(C)(C)C)c1)C(C)O (stereo not given),102 to 105 °C
5,COCCc1nc2c(N)nc3c(c2n1CCOCCN(C)C(=O)Nc1ccccc1)CCCC3,168 to 170 °C
6,CCc1noc(-c2cn(-c3ccc(OC)cc3)cn2)n1,147 to 148 °C
7,O=C1CC(c2ccc(Oc3ccc(C(F)(F)F)cc3)cc2)Cc2ccccc21 (stereo not given),136 to 137 °C
8,COc1ccc(S(=O)(=O)Nc2ccccc2N)cc1,141 to 142 °C
9,COC(=O)c1ccc(Cn2ncc3ccc([N+](=O)[O-])cc32)cc1,171 to 172 °C
10,O=c1oc2c(c(O)c1Sc1nc3ccccc3o1)c(=O)n(Cc1ccccc1)c1ccccc21,196 to 198 °C
11,Nc1cccnc1-c1ccccc1,59 to 62 °C
12,CC12CCC(O)CC1=CCC1C2CCC2(C)C1CCC2n1ccnc1 (stereo not given),255 to 258 °C
13,CCOCCn1c(C(=O)C2CCN(CCC3(c4ccccn4)CCN(C(=O)c4cc(OC)c(OC)c(OC)c4)C3)CC2)nc2ccccc21 (stereo not given),50 to 55 °C
14,COc1cc(Nc2nc3cccc(-c4cccc(C)c4)c3o2)cc(OC)c1OC,153 to 155 °C
15,CCc1ccc(SC2CCOC2=O)c(C(=O)O)c1 (stereo not given),167 to 170 °C
16,Cc1nc(-c2ccc(C=CC3CN4CCC3CC4)cc2)no1 (stereo not given),93 to 97 °C
17,CCCCCCCN(C[C@H]1CC[C@H](CN(CCCCCCC)C(=O)Nc2ccc(N(C)C)cc2)CC1)C(=O)Nc1ccc(N(C)C)cc1,112 to 114 °C
18,Cn1c(SCc2ccccc2)nc2c(c1=O)NCN2C(c1ccccc1)(c1ccccc1)c1ccccc1,255 to 258 °C
19,CN(C)C(=O)n1ccc(-c2ccc(Oc3ccc(F)cc3)cc2)n1,59 to 63 °C
20,Cc1ccc(-c2nc(-c3ccncc3)cs2)c(=O)[nH]1,> 300 °C
21,Cc1nc(-c2ccc(Cl)cc2C(=O)c2ccccc2)n[nH]1,148 to 150 °C
22,CC(=O)SCC(Cc1ccccc1)C(=O)Nc1ccc(C(=O)OCc2ccccc2)cc1 (stereo not given),139 to 140 °C
23,O=Cc1ccc(-c2nc(Oc3ccccc3)cc(Oc3ccccc3)n2)cc1,143 to 145 °C
24,COc1cncc(-c2cc(=S)ss2)n1,149 °C

row,SMILES,melting point
1,COc1ccc(N(c2ccc(OC)cc2)c2ccc(-c3ccc(N(c4ccc(OC)cc4)c4ccc5ccc6cccc7ccc4c5c67)cc3)cc2)cc1,211 to 213 °C
2,CCOC(=O)c1ccc(N2CCN(Cc3c[nH]c4ncccc34)CC2)cc1,196 to 197 °C
3,COCOc1c(OC)cc(C(S)CS)cc1OC (stereo not given),84 to 85 °C
4,Cc1ccc2nc(-c3cc(C(F)(F)F)nn3-c3ccc(S(C)(=O)=O)cc3)oc2c1,209 to 210 °C
5,COc1ccc2c(c1)C(=O)N(c1ccc3ncsc3c1)C2,204 to 207 °C
6,Nc1ccc(N=Nc2ccc([N+](=O)[O-])c(C(F)(F)F)c2)cc1,136 °C
7,C#CCNC(=O)c1cccc(F)c1N,89 to 91 °C
8,O=C1CC2CCSc3sc(CCO)cc3C2=NN1 (stereo not given),165 to 167 °C
9,COc1ccc(-c2nc3cccc(OC)c3c(=O)[nH]2)nc1-c1ccc(S(C)=O)cc1 (stereo not given),308 to 310 °C
10,NCCNC(=O)Nc1ccc2[nH]ccc2c1,156 to 158 °C
11,NC(=O)N1C(=O)C(C(=O)c2ccc(Br)s2)c2cc(Cl)ccc21 (stereo not given),228 to 229 °C
12,CN1CCN(C(=O)OC2C3=C(SCCS3)C(=O)N2c2ccccc2)CC1 (stereo not given),166 °C
13,CC(=O)Oc1ccc2c(c1)C(=O)NC(C(Cl)(Cl)Cl)O2 (stereo not given),201 to 203 °C
14,CCCCc1c(C(=O)c2ccc(OC)cc2)[nH]c2ccc([N+](=O)[O-])cc12,142 °C
15,N=C(N)c1ccc2nc(-c3ccc(-c4nc5ccc(C(=N)N)cc5[nH]4)o3)[nH]c2c1,> 300 °C
16,CC1=NN=C(c2ccc3ccccc3n2)c2cc3oc(=O)[nH]c3cc2C1,304 to 306 °C
17,O=C(CC(=O)C1CC1)Nc1ccc(C(F)(F)F)cc1,131 to 132 °C
18,CCOC(=O)c1ccc2occ(-c3ccc(SC)cc3)c2n1,88 to 89 °C
19,O=C(NC(Cc1ccc(C(F)(F)F)cc1)C(O)c1ccc(F)cc1)c1cccc(-c2ccccc2)c1 (stereo not given),165 to 166 °C
20,CC1(C)SC(c2cccnc2)NC1C(=O)O (stereo not given),164 to 165 °C
21,Cc1ccc(Br)c(Cl)c1NS(=O)(=O)c1ccccc1C(=O)O,238 to 242 °C
22,CC1(C)SCN(C(=O)[C@@H](O)[C@H](Cc2ccccc2)NC(=O)O[C@H]2CCOC2)[C@@H]1C(=O)N[C@H]1CCCc2ccccc21,103 to 105 °C
23,O=C1C=CC(OC2CCCC2)N1S(=O)(=O)c1ccccc1 (stereo not given),123 to 124 °C
24,CCCNc1nc(C)nc2c1nnn2-c1ccc(C(C)C)cc1Br,156 to 157 °C

row,SMILES,melting point
1,CC(=O)OC1OCC[C@@H]1NC(=O)[C@@H](NC(=O)OCc1ccccc1)C(C)C (stereo not given in full),173 to 174 °C
2,Oc1c(Cc2ccccc2)nc(Cc2ccccc2)c2c1COC2,204 to 205 °C
3,COC(=O)C(Cc1ccccc1)Oc1ccc2cc(-c3ccc(-c4ccccc4)[nH]3)ccc2c1 (stereo not given),140 to 141 °C
4,COc1cc(COc2nn(-c3ccccc3)cc2/C=C/C(N)=O)ccc1OCc1nc(-c2ccco2)oc1C,187 to 188 °C
5,O=c1[nH]c(=O)n(CCCN2CCC(OC(c3ccccc3)c3ccccc3)CC2)c2ccccc12,149 to 151 °C
6,COC(=O)c1ccc2cc(-c3ccc(OC)c(C45CC6CC(CC(C6)C4)C5)c3)ccc2c1,221 to 227 °C
7,CC(C)(C)OC(=O)N(C(=O)OC(C)(C)C)c1cc(-c2ccc(N)cc2)n(C(=O)OC(C)(C)C)n1,84 to 85 °C
8,NC1CC(O)c2ccccc21 (stereo not given),108 to 110 °C
9,CN1c2ccc(-c3cccc4ccccc34)cc2S(=O)c2cc(-c3cccc4ccccc34)ccc21,221 to 225 °C
10,Cc1nc(N2CCN(Cc3ccc(C(F)(F)F)cc3)C2=O)sc1C(N)=O,216 to 217 °C
11,Cc1ccccc1C(=O)Nc1ccc2oc3c(c2c1)CCCC3,209 to 210 °C
12,CN(C)c1ccc(N(c2ccc(N(C)C)cc2)C2(c3ccc(N(C)C)cc3)OC(=O)c3cc(N(C)C)ccc32)cc1 (stereo not given),86 to 92 °C
13,C#Cc1cccc(Oc2nc(Oc3cccc(C#C)c3)nc(-c3ccccc3)n2)c1,139 to 144 °C
14,CS(=O)(=O)c1cc(C(=O)O)c(NCc2ccccc2)cc1Cl,179 °C
15,CC(C)CCCC(C)C1CCC2C3CC=C4CC(OCCC#CCCOC(c5ccccc5)(c5ccccc5)c5ccccc5)CCC4(C)C3CCC12C (stereo not given),112 to 113 °C
16,CCCOc1cc(S(C)(=O)=O)ccc1-c1ccc(C#N)c(=O)[nH]1,241 to 242 °C
17,O=CNC[C@H](O)C(=O)OC=O,140 to 142 °C
18,CCCCc1nc(CO)c(Sc2ccccc2)n1Cc1ccc(-c2ccccc2C(=O)O)cc1,220 °C
19,CC(=O)C(=NNc1ccccc1)Sc1ccc(Cl)cc1,111 to 113 °C
20,Brc1cccc(-c2cc(-c3cccc(Br)c3)on2)c1,155 to 156 °C
21,Nc1ccc(O)c(C(=O)CCC(=O)O)c1,158 to 160 °C
22,O=C(c1cncc(Br)c1)N1CCC(=C2c3ccc(Cl)cc3CCc3cccnc32)CC1,87.5 to 96.4 °C
23,Cc1cccc(C)c1CNc1cc(C2=NCCO2)cc2c1nc(C)n2C,235 °C
24,CCCCc1nn(-c2cc(NC(=O)NCCC)ccc2Cl)c(=O)n1Cc1ccc(-c2ccccc2S(=O)(=O)NC(=O)c2ccccc2Cl)cc1,> 208 °C

row,SMILES,melting point
1,CCN(CC)CCOc1ccc(Nc2ncc3c(n2)N(CC)C(=O)N(c2cc(OC)cc(OC)c2)C3)cc1,139 to 141 °C
2,COC(=O)c1sccc1COC(C)=O,42 to 43 °C
3,CC(C)(C)OC(=O)N[C@H](Cc1ccccc1)C(=O)N1CCC[C@H]1C(=O)NC1CCc2n[nH]cc2C1 (stereo not given in full),108 to 110 °C
4,COc1cc(OC)c(-c2cccs2)cc1/C=C/C(=O)c1ccc(S(=O)(=O)Nc2ccc(C(F)(F)F)cn2)cc1,228 to 229 °C
5,COc1ccc2c(c1)CCC1C2CCC2(C)C(=O)C(Br)CC12 (stereo not given),146 to 149 °C
6,COC(=O)C(Oc1ccc(C(F)(F)F)cc1)c1ccc(OCCCOc2ccc(Cl)cc2)cc1 (stereo not given),83 to 84 °C
7,C=CCN1C2CCC3C1CCC2N3C(c1ccc(C(=O)N(CC)CC)cc1)c1cccc(O)c1 (stereo not given),147 to 150 °C
8,O=C(O)c1csc(-c2ccc(Cl)cc2)n1,189 to 190 °C
9,COC(=O)NS(=O)(=O)c1ccc(NC(=O)COc2ccc(Cl)cc2C)cc1,184 to 185 °C
10,OC1CCc2c(Cl)cc(Cl)cc2C1 (stereo not given),84 to 86 °C
11,COc1ccccc1CNc1ccc2cc(Nc3ncc(C(F)(F)F)o3)ccc2n1,166 °C
12,Nc1sc2c(c1C(=O)c1ccco1)CCN(Cc1ccccc1)C2,112 to 117 °C
13,COC(=O)CC1CCc2cc(C(=O)c3ccccc3)c(O)cc21 (stereo not given),148 to 150 °C
14,CC(Br)c1ccc2onc(-c3ccc(Cl)cc3)c2c1 (stereo not given),111 to 116 °C
15,CCCc1cc(Cl)c2oc(C(=O)OCC)c(C)c2c1O,165 to 166 °C
16,CNC(=O)[C@@H]1C[C@@H](Oc2ccccc2)CN1S(=O)(=O)c1ccc(Cl)c(COc2cccc3c(-n4ccnc4)cc(C)nc23)c1Cl,97 °C
17,COC(=O)C(Cc1ccccc1)NC(=O)C(CC(=O)O)NC(=O)C(N)CO (stereo not drawn) (H-Ser-Asp-Phe-OMe; configuration not given here),196 to 199 °C
18,N#Cc1ccc(N2C(=O)C3CSCN3C2=O)c2ccccc12 (stereo not given),223 to 225 °C
19,CCOC(=O)C1=C(C)Nc2nc(N3CCOCC3)nc(N3CCOCC3)c2C1c1cccc2ccccc12 (stereo not given),198 °C
20,Cn1c(=O)c2ncn(CCCCCC(=O)O)c2n(C)c1=O,177 °C
21,CC(C)OCC(O)COc1ccc(/C=C/C(=O)O)c(Oc2ncc(C(F)(F)F)cc2Cl)c1 (stereo not given),92 to 93 °C
22,Cc1cc(C(C)(C)C)c(O)cc1[N+](=O)[O-],96 to 98 °C
23,CCOC(=O)c1nccn1CCCCc1ccc(OCc2coc(/C=C/c3ccccc3)n2)cc1,96 to 97 °C

# From a melting point compilation (Tetko et al.; mined from patent text by program, amines drawn as free bases though some values may be those of a salt)
